Source: patent US20230141863A1, “Small Molecule Inhibitors Targeting the Sodium Channel Tamoxifen Receptor and Uses Thereof” (Northwestern University, priority 2021, published 2023)

Tested on: T1, endogenous voltage-gated sodium channels expressed in murine DRG neurons
T1 construct: other: waiting for 5 minutes after removal; ND-Tam potency against DRG INa (IC50); other: DRG neurons, −60 mV holding potential; other: 3 μM ND-Tam treatment; other: DR
Experiment: Whole cell voltage clamp of endogenous sodium currents (INa) in cultured DRG sensory neurons
Type: cell-based, mouse
Method: FIG. 1. Tamoxifen metabolites inhibit endogenous voltage-gated sodium channels expressed in murine DRG neurons. A) DIC and fluorescence images of voltage clamped DRG neuron isolated and cultured from an Nav1.8-tomato mouse. Continuity with the patched neuron is indicted by the GFP (Alexa Fluor 488 dye 1 nM) loaded into the glass patch electrode. B) Top, exemplar sodium currents (INa) recorded in control saline and two concentrations of N-desmethyl tamoxifen (ND-Tam) from a voltage-clamped DRG neuron. INa was activated by 0.2 Hz train of 50 ms depolarizations to −10 mV from −100 mV holding potential. Bottom, time course of peak INa inhibition during control conditions and after 5 minutes of extracellular ND-Tam treatment. C) Resulting drug concentration-INa inhibition relationship for ND-Tam fit to the Hill equation. Open symbols represent responses from individual cells and filled symbols represent average response per concentration. Error is equal to S.E.M. (n=11) D) A comparison of the percent INa recovery after 3-10 μM ND-Tam or 1 mM carbamazepine (CBZ) inhibition. INa recovery was assessed after 5 minutes in control saline post drug exposure. Fewer INa recovered from ND-Tam exposure compared to CBZ exposure, 14.3±5.4% and 47.2±9.6%, respectively, and was statistically significant (P=0.03). Error is equal to S.E.M. and the number of cells tested per treatment group is indicated within the parentheses.
Previously, a unique receptor site for tamoxifen analogues within the prokaryotic sodium channel isolated form Magnetococcus marinus (NavMs)^36 (Sula et al) was crystallographically identified. Because drug occupancy of this receptor caused long lasting inhibition of the NavMs INa, the inventors wondered if these properties would translate into effects against sensory neuron Na s which transmit pain signals. Accordingly, =the potency of ND-Tam and 4OH-Tam was tested against endogenously expressed Na s in cultured DRG sensory neurons isolated from Nav1.8-tdTomato mice by conducting whole cell voltage clamp recordings (FIG. 1A, B). Sodium currents were activated by a 0.2 Hz train of −10 mV depolarizations from a holding potential of −100 mV. The externally applied drug effect was determined after three to five minutes of application of each drug concentration (FIG. 1B). […] As discussed in the introduction, total DRG INa is conducted by the Nav1.1, Nav1.6, Nav1.7, Nav1.8 and Nav1.9 subtypes. To determine if there is any specificity in the potency of tamoxifen analogues against Nav subtypes, human orthologues were heterologously expressed in cell lines (HEK and CHO co-expressing hb1 subunits), and conducted voltage-clamp experiments, as previously performed in the DRG neurons.
Dorsal root ganglia were isolated using a modified version of the previously described protocol (PMID: 26864470). All animal procedures were approved by the Institutional Animal Care and Use Committee at the Feinberg Medical School, Northwestern University. The spinal columns of 4-6-week-old […] or Nav1.8-Tomato mice (Nav1.8-Td) were removed and DRG neurons from all spinal levels were isolated for primary culture (PMID: 33827672, PMID: 31351964). The collected DRGs, containing both neuronal and non-neuronal cells, were acutely dissociated in DMEM with collagenase IV (2 mg/mL) for 30 minutes, followed by papain (25 U/mL) for 30 minutes. The cells were then triturated, filtered through a 40 μm cell strainer to remove non-dissociated cells, and washed with DMEM. The DRGs were resuspended in 70 μL of pre-warmed growth medium (DMEM F12+Glutamax supplemented with 0.5% FBS, 0.5% penicillin/streptomycin, 1% N-2 supplement, and β-NGF ([…]) added on the day of use) and plated on poly-l-lysine (10 mg/mL) and laminin (25 μg/mL) prepared coverslips. The DRGs were incubated at 37° C. for 2-4 hours before more growth medium was added to the wells. […]

- IC50 (DRG neurons, −100 mV holding potential, 0.2 Hz train of −10 mV depolarizations, read-out: half maximal potency of INa inhibition (IC50)): 1700 nM
SMILES: CC/C(=C(\c1ccccc1)c1ccc(OCCNC)cc1)c1ccccc1 [ND-Tam, 2-[4-[(Z)-1,2-diphenylbut-1-enyl]phenoxy]-N-methylethanamine]
- block of the total INa (3 μM ND-Tam treatment): ≈ 45%
- change in the half-maximal activation of conductance (GV1/2) (3 μM ND-Tam treatment): No change
- voltage-dependence of inactivation (V1/2) after drug treatment (ND-Tam (3 μM), control −47.6±0.4 mV): −51.9±0.4 mV
- half-maximal conductance-voltage relationship (V1/2) (ND-Tam conditions (3 μM), control −38.3±0.3 mV): −37.7±0.4 mV
- shift in voltage dependence of inactivation (after 3 μM ND-Tam treatment, P=0.01): −8 mV
- inhibition of sodium currents recorded from DRG neurons (in words) (tamoxifen analogs and fragments, FIG. 7B): inhibited sodium currents
- INa that did not recover after removing drug from the bath (waiting for 5 minutes after removal): 86±5%
- increase in potency when neuron membranes were held at more depolarizing potentials (−40, −60 and −100 mV holding potentials): 15-44 ×
